The values below are quoted from earlier work in patent publication US9072782B2, “Gadolinium complex, method for preparing same, and MRI contrast agent comprising same” (CATHLOIC UNIVERSITY INDUSTRY ACADEMIC COOPERATION FOUNDATION, priority 2009, dated 2015).

The conditions of series [1]: Hiroki Yoshikawa et al., Gazoshindan 1986.
For series [2] the following is noted: prior DTPA-Gd.

Consider `O=C([O-])CN(CCN(CC(=O)[O-])CC(=O)O)CCN(CC(=O)[O-])CC(=O)O.[Gd+3]` [DTPA-Gd], for which the half-life entry in series [1] is “about 14 minutes”. The “time taken to be washed out from tissue” value in series [2] is recorded as “about 30 minutes”.
